In this experiment the test system is H3R2me2a. As to the kind of experiment: Western blot of H3R2me2a after glucose. As to conditions: for H3R2me2a/H3: 0.5 hr. The format is cell-based, budding yeast (Saccharomyces cerevisiae). Here is the method: To examine the effect of glucose on histone modifications, yeast cells were grown in 2% glucose-containing YPD (Yeast Extract Peptone Dextrose) medium until OD600 of 0.7–1.0. Cells were then collected, washed and resuspended in YP medium for 3 hr followed by treatment with different concentrations of glucose for 0.5 hr. For 1NM-PP1 (MCE, HY-13804) treatment, cells were grown in 2% YPD until OD600 of 0.7–1.0. Cells were then treated with 25 μM 1NM-PP1 for 0.5 hr. For FBP and pyruvate treatment, cells were pre-treated with Zymolase (Mpbio, 08320921) to increase the permeability. In brief, cells were grown in YPD medium until OD600 of 0.7–1.0, centrifuged and resuspended in 1 ml SB buffer (100 mM Sorbitol, 20 mM Tris pH 7.4). 10 μl Zymolase was then added and incubated at 30 °C for 15 min. The spheroplasts were washed and cultured in YPD medium containing different concentrations of FBP and pyruvate for 3 hr.
Cells were grown in 5 ml YPD or selective medium until OD600 of 0.7–1.0. Cells were harvested and lysed in alkaline lysis buffer (2 M NaOH, 8% 2-mercaptoethanol). After centrifugation, the protein pellet was resuspended in 150 μl 2×SDS-sample buffer. Protein samples were separated by 8–15% SDS-PAGE and transferred to PVDF membrane. The blots were probed with primary antibodies followed by incubation with horseradish peroxidase-labelled IgG secondary antibodies. The protein bands were visualized using the ECL Chemiluminescence Detection Kit (Bio-Rad, 170–5061) and quantified with Image J software (v.1.8.0).
Supplementary Fi g . […] WT (a) and H2B-F LA G cel ls (b) wer e grown in YPD medium until OD600 of 0.7.
Cells were th en tr eat ed with YP medium supplement ed with differen t concentrations of glucos e for 0.5 hr. C ells were h ar vested an d the ex tract ed histones w er e anal yz ed by Western blots with indicat ed ant ibodies. To d et ect H2B monoubiquitination, H2B-F LAG strain w as used and d et ect ed with anti -F LAG ant ibody. Th e upper bands ar e monoubiquitinat ed H2B-F LAG. c E ff e c t of gl ucose on histone modifications in WT and ubp8∆ ubp10∆ mutant. WT and ubp8∆ ubp10∆ mut ant w er e gro wn in YPD medium unti l OD600 of 0.7. Cells wer e th en treated with YP medium supplem ent ed with di fferent con cen tr ations of gl u cos e fo r 0.5 hr. d Gluco se has no effect on the activit y of C O M PA S S . Spp1-TA P cells wer e grown in YPD medium until OD600 of 1.5. Cells were h arv est ed and then treat ed with YP + 0.05% glucos e and YP + 4% gl u cos e for 0.5 hr. Spp1-cont aining COMPASS (Spp1-CBP ) was then p urifi ed by tand em affinit y puri fi cati on ( TA P ) . Th e in vitro hi stone meth yltransferase assa y was p er form ed wit h purifi ed C O M PA S S and in vitro assembl ed nucl eosom es. e E ff e c t of the m TO R pathwa y on H3K4 meth ylation. […]
For Supplem ent ar y Fi g. 1b, e-g, i-k, d at a r ep res ent means ± SEM; n=3 i ndependent ex perim ents. For Supplem entar y Fi g. 1c, d ata represent means ± SEM; n=4 independent ex periments. Tw o -sided t-tests were used for statistical analysis.
A general note: Immunoblotting shows a protein as a band on a membrane.

For the molecule `OC[C@H]1OC(O)[C@H](O)[C@@H](O)[C@@H]1O` (stereo partly shown) [glucose], the H3R2me2a/H3 by setting is: (0.5% glucose, relative to 0.05% glucose = 1, replicate 1) 1.016; (0.5% glucose, relative to 0.05% glucose = 1, replicate 2) 0.8082; (0.5% glucose, relative to 0.05% glucose = 1, replicate 3) 1.063; (1% glucose, relative to 0.05% glucose = 1, replicate 1) 1.0068; (1% glucose, relative to 0.05% glucose = 1, replicate 2) 0.9832; (1% glucose, relative to 0.05% glucose = 1, replicate 3) 1.068. The H3R2me2a/H3 is, setting by setting: (2% glucose, relative to 0.05% glucose = 1, replicate 1) 0.9685; (2% glucose, relative to 0.05% glucose = 1, replicate 2) 0.8294; (2% glucose, relative to 0.05% glucose = 1, replicate 3) 0.8742; (4% glucose, relative to 0.05% glucose = 1, replicate 1) 1.047; (4% glucose, relative to 0.05% glucose = 1, replicate 2) 0.9174; (4% glucose, relative to 0.05% glucose = 1, replicate 3) 0.9548. Moreover, the H3R2me2a level result (glucose 0.5 hr, Western blot) is recorded as “had no significant effect on H3R2me2a”.
